Experimental findings from patent publication US20100249123A1, “NOVEL BENZAMIDE DERIVATIVES AS MODULATORS OF THE FOLLICLE STIMULATING HORMONE” (ADDEX PHARMA SA, priority 2007, published 2010) are described below.

Each structure is given as a SMILES string.

For data set [1], the target named is T1, rat follicle stimulating hormone receptor (rFSHR) (Rattus norvegicus, UniProt P20395).
T1 construct: expressed in transfected cells
T1 sequence (P20395 18-692): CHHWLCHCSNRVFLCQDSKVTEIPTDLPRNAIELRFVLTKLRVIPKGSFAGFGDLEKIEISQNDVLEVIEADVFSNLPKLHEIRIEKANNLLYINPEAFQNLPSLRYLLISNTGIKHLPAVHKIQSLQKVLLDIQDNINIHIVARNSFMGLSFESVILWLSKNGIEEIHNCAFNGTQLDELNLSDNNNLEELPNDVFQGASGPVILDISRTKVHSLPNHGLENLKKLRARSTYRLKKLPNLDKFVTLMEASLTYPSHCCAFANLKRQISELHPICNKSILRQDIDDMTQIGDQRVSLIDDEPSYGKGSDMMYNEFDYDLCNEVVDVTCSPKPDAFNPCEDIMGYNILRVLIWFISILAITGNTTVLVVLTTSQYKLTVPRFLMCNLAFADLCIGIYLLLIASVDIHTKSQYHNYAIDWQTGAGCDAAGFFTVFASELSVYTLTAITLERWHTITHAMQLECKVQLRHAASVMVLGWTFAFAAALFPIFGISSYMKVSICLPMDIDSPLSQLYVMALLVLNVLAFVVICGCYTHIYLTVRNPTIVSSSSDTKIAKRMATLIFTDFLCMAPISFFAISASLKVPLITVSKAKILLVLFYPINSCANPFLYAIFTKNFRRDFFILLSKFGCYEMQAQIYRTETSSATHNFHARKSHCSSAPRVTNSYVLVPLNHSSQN
The experiment in a line: Intracellular cAMP measurement (HTRF) assay, antagonism of EC70 of hFSH. In kind it is cell-based. Particulars: HEK293 cells expressing rFSHR, 1 ng/ml hFSH (EC70), read-out: Class (IC50 to antagonise an EC70 of FSH receptors agonist such as hFSH). The source says:
Intracellular cAMP Measurement Assay
The Intracellular cAMP measurement assay is a functional cell-based assay used to study GPCR function. This method relies on a Time-Resolved Fluorescence (HTRF) assay to measure the cAMP accumulation upon receptor-mediated Gs protein activation in cells expressing recombinant GPCR or in cells from native tissues. In brief, this method is a competitive immunoassay between native cAMP produced by cells and the cAMP labeled with a fluorescent tag. The endogenously produced cAMP competes with exogenous added d2-labelled cAMP for the cAMP binding site on a Eu3+ cryptate labelled anti-cAMP antibody. The d2-labelled cAMP and the Eu^3+ labelled antibody produces a basal fluroresence via HTRF and therefore an intracellular increase in unlabelled cAMP is detected as decrease in this signal. cAMP is one of the most important intracellular mediators. Its concentration in cells can be increased upon binding of many hormones to their receptors. The most studied pathway consists in the release of α-subunit GTP-binding proteins following ligand-receptor interaction, which in turn activates or inhibits the ATP/cAMP conversion function of adenylate cyclase enzyme. cAMP is then involved in many complex regulatory processes such as protein kinase activation or ion channel gating. This method is widely used to study receptor activation of G protein in cells over-expressing GPCRs or in native cells, including FSH receptors expressing cells (Gabriel et al., Assay Drug Dev. Technol., 1, 291-303, 2003).
Transfection and cell culture: The cDNA encoding the rat follicle stimulating hormone receptor (rFSHR), (accession number NM_199237, NCBI Nucleotide database browser) was subcloned into an expression vector containing also the hygromycin resistance gene. Transfection of this vector into HEK293 cells with PolyFect reagent (Qiagen) according to supplier's protocol, and hygromycin treatment allowed selection of antibiotic resistant cells which had integrated stably one or more copies of the plasmid. Positive cellular clones expressing rFSHR were identified in a functional assay measuring cAMP production in cells following stimulation by addition of purified human follicle stimulating hormone (hFSH).
HTRF cAMP assay: On the day of the experiment, cells were detached from the Petri dish and distributed in a low volume, black-walled 384-well plate at a density of 5,000 cells/well in an assay buffer containing 1 mM IBMX to prevent cAMP degradation by cytoplasmic phosphodiesterases. The determination of the cAMP accumulation was performed using an HTRF assay (Trinquet et al., Anal. Biochem., 358, 126-135, 2006). Briefly, cells were incubated for 3 min in the presence of increasing concentrations of negative allosteric modulators (from 1 nM to 60 μM) and then 30 min in the presence of 1 ng/ml of hFSH, an agonist of rat FSH receptor, that has been determined in previous experiments to correspond to the EC70, a concentration that gives 70% of the maximal response of the agonist, and is in accordance with published data (Fox et al., Mol. Endocrin., 15, 378-389, 2001). […] Cells were then lysed by adding the HTRF assay components, the europium cryptate-labeled anti-cAMP antibody, and the XL665-labeled cAMP analog, previously diluted in a HEPES buffer (50 mM, pH 7.0) containing 0.8 M potassium fluoride, 0.2% (w/v) BSA, and 1% (v/v) Triton X-100, a percentage of detergent that ensure complete cell lysis. Assay was then incubated for 1 hr at room temperature, and HTRF signal was measured after excitation at 337 nm, and dual emission at 620 and 665 nm, using a RubyStar fluorimeter (BMG Labtechnologies). Moreover, the fluorescence ratio of an appropriate range of known concentrations of cAMP standards was also included on each assay plate to produce a standard cAMP curve. […]

In turn, `COc1ccc(C(=O)Nc2ccc(C(C)(C)CNC(=O)CCc3ccccc3)cc2)cc1OC` [Example 34] returned a melting point of 149 to 151 °C. In addition, the IC50 in data set [1] was 150 to 400 nM. With `COc1ccc(C(=O)Nc2ccc(C(C)(C)CN3CCOC3=O)cc2)cc1OC` [Example 60, N-{4-[1,1-Dimethyl-2-(2-oxo-oxazolidin-3-yl)-ethyl]-phenyl}-3,4-dimethoxy-benzamide], the melting point was in the range of 190 to 191 °C. As to `COc1ccc(C(=O)Nc2ccc(C(C)(C)CNC(=O)c3ccsc3)cc2)cc1OC` [Example 72], the melting point fell in the range of 189 to 190 °C. Besides, the IC50 in data set [1] was 150 to 400 nM. Take `COc1cc(C(C)(C)C#N)ccc1NC(=O)c1ccc(OC)c(OC)c1` [Example 75, N-[4-(Cyano-dimethyl-methyl)-2-methoxy-phenyl]-3,4-dimethoxy-benzamide]: the melting point lay within 110 to 112 °C. Regarding `COc1ccc(C(=O)Nc2ccc(C(C)(C)CNC(=O)c3n[nH]c4ccccc34)cc2)cc1OC` [Example 87], the melting point fell in the range of 214 to 216 °C. Also, in data set [1], the IC50 is 150 to 400 nM. In the case of `COc1ccc(C(=O)Nc2cccc(C(C)(C)CNC(C)=O)c2)cc1OC` [Example 88, N-[3-(2-Acetylamino-1,1-dimethyl-ethyl)-phenyl]-3,4-dimethoxy-benzamide], the melting point is 132 to 134 °C.

In turn, `COc1ccc(C(=O)Nc2ccc(C(C)(C)CNC(=O)c3cc4ccccc4n3C)cc2)cc1OC` [Example 108] returned a melting point of 176 to 178 °C. In addition, the 50% inhibitory concentration (IC50) in data set [1] lay within 400 to 1000 nM. In the same order, the values of `COc1ccc(C(=O)Nc2ccc(C(C)(C)CNC(=O)c3csc4ccccc34)cc2)cc1OC` [Example 116] are 145 to 147 °C and less than 150 nM. In turn, `COc1ccc(C(=O)Nc2ccc(C(C)(C)CNC(=O)Cc3c[nH]c4ccccc34)cc2)cc1OC` [Example 126] had a melting point of 94 to 96 °C. Further, in data set [1], the IC50 fell in the range of 150 to 400 nM. `COc1ccc(C(=O)Nc2ccc(C(C)(C)CNC(C)=O)c(F)c2)cc1OC` [Example 151, N-[4-(2-Acetylamino-1,1-dimethyl-ethyl)-3-fluoro-phenyl]-3,4-dimethoxy-benzamide] had a melting point of 186 to 188 °C. Still for that read-out and setting: to `COc1ccc(C(=O)Nc2ccc(C(C)(C)C#N)cc2)c(Cl)c1OC` [Example 153, 2-Chloro-N-[4-(cyano-dimethyl-methyl)-phenyl]-3,4-dimethoxy-benzamide] belongs 195 to 198 °C; to `COc1cc(Cl)c(C(=O)Nc2ccc(C(C)(C)C#N)cc2)cc1OC` [Example 155, 2-Chloro-N-[4-(cyano-dimethyl-methyl)-phenyl]-4,5-dimethoxy-benzamide], 142 to 144 °C; to `COc1ccc(C(=O)Nc2ccc(C(C)(C)C#N)c(-c3cccc(Cl)c3)c2)cc1OC` [Example 157, N-[3′-Chloro-6-(cyano-dimethyl-methyl)-biphenyl-3-yl]-3,4-dimethoxy-benzamide], 144 to 146 °C. On the same count and under the same terms, the figure for `COc1ccc(C(=O)Nc2ccc(C(C)(C)C#N)c(-c3ccncc3)c2)cc1OC` [Example 158, N-[4-(Cyano-dimethyl-methyl)-3-pyridin-4-yl-phenyl]-3,4-dimethoxy-benzamide] is 196 to 199 °C. Same read-out and setting: the figure for `CCOc1ccc(C(=O)Nc2ccc(C(C)(C)C#N)cc2)cc1OCC` [Example 160, N-[4-(Cyano-dimethyl-methyl)-phenyl]-3,4-diethoxy-benzamide] is 138 to 140 °C; for `COc1ccc(C(=O)Nc2ccc(C(C)(C)CNC(=O)c3cnc4ccccn34)cc2)cc1OC` [Example 161, Imidazo[1,2-a]pyridine-3-carboxylic acid {2-[4-(3,4-dimethoxy-benzoylamino)-phenyl]-2-methyl-propyl}-amide] it is 181 to 183 °C; for `COc1ccc(C(=O)Nc2ccc(C(C)(C)CNC(=O)c3nc4ccccc4[nH]3)cc2)cc1OC` [Example 162, 1H-Benzoimidazole-2-carboxylic acid {2-[4-(3,4-dimethoxy-benzoylamino)-phenyl]-2-methyl-propyl}-amide] it is 223 to 226 °C.

Compound `COc1ccc(C(=O)Nc2ccc(C(C)(C)C#N)c(-c3cncnc3)c2)cc1OC` [Example 184, N-[4-(Cyano-dimethyl-methyl)-3-pyrimidin-5-yl-phenyl]-3,4-dimethoxy-benzamide] gave a melting point of 198 to 200 °C. Moreover, the IC50 in data set [1] was not below 1000 nM. The compound `COc1ccc(C(=O)Nc2ccc(C(C)(C)CNC(=O)c3ccc4nccn4c3)cc2)cc1OC` [Example 190] came in with a melting point of 194 to 196 °C. Further, the IC50 in data set [1] is not below 1000 nM. For `COc1ccc(C(=O)Nc2ccc(C(C)(C)CNC(=O)c3nc4ccc(F)cc4[nH]3)cc2)cc1OC` [Example 193, 6-Fluoro-1H-benzoimidazole-2-carboxylic acid {2-[4-(3,4-dimethoxy-benzoylamino)-phenyl]-2-methyl-propyl}-amide] the same measures were 222 to 224 °C and less than 150 nM.

Turning to `COc1ccc(C(=O)Nc2ccc(C(C)(C)CNC(C)=O)c(-c3cccnc3)c2)cc1OC` [Example 195, N-[4-(2-Acetylamino-1,1-dimethyl-ethyl)-3-pyridin-3-yl-phenyl]-3,4-dimethoxy-benzamide], the melting point lay within 234 to 237 °C. In data set [1], the IC50 was not below 1000 nM. Consider `CCc1cc(NC(=O)c2ccc(OC)c(OC)c2)ccc1C(C)(C)CNC(C)=O` [Example 200, N-[4-(2-Acetylamino-1,1-dimethyl-ethyl)-3-ethyl-phenyl]-3,4-dimethoxy-benzamide], for which the melting point lay within 203 to 206 °C. Moreover, the IC50 in data set [1] is less than 150 nM.
